Data as given in ChEMBL document CHEMBL1926669, “Quantitative structure-activity relationships of 1,3,4-thiadiazol-2(3H)-ones and 1,3,4-oxadiazol-2(3H)-ones as human protoporphyrinogen oxidase inhibitors” (Bioorg Med Chem, 2012).

Target: T1, Protoporphyrinogen oxidase (Homo sapiens, UniProt P50336)
T1 sequence (P50336 whole entry): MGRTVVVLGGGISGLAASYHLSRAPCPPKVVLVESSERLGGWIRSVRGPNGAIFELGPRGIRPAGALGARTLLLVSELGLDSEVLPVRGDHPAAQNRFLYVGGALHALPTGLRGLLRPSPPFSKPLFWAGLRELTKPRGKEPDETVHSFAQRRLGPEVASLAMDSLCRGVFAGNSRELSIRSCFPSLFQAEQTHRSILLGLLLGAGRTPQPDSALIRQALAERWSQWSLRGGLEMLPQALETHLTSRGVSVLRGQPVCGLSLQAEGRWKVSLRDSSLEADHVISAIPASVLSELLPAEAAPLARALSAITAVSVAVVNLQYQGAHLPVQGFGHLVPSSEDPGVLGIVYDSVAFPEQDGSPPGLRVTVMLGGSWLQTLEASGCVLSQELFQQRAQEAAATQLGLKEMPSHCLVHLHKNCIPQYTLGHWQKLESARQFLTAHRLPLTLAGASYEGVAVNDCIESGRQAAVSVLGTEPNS
Assay: Inhibition of human PPO by capillary electrophoresis method

| Ki | SMILES |
| --- | --- |
| 17.7 µM | CCOC(=O)CCCSc1nc2cc(-n3nc(C(C)(C)C)sc3=O)c(Cl)cc2s1 |
| 0.04 µM | CCOC(=O)Sc1nc2cc(-n3nc(C(C)(C)C)sc3=O)c(F)cc2s1 |
| 0.34 µM | CCOC(=O)CSc1nc2cc(-n3nc(C(C)(C)C)sc3=O)c(F)cc2s1 |
| 5.89 µM | CCOC(=O)C(C)Sc1nc2cc(-n3nc(C(C)(C)C)sc3=O)c(F)cc2s1 (stereo not given) |
| 0.2 µM | CCOC(=O)Sc1nc2cc(-n3nc(C(C)(C)C)sc3=O)c(Cl)cc2s1 |
| 12 µM | CCOC(=O)C(C)Sc1nc2cc(-n3nc(C(C)(C)C)sc3=O)c(Cl)cc2s1 (stereo not given) |
| 34.4 µM | CCOC(=O)C(C)(C)Sc1nc2cc(-n3nc(C(C)(C)C)sc3=O)c(Cl)cc2s1 |
| 21.4 µM | C#CCSc1nc2cc(-n3nc(C(C)(C)C)sc3=O)c(Cl)cc2s1 |
| 15.6 µM | CCOC(=O)CSc1nc2cc(-n3nc(C(C)(C)C)sc3=O)c(Br)cc2s1 |
| 173 µM | CCOC(=O)C(C)Sc1nc2cc(-n3nc(C(C)(C)C)sc3=O)c(Br)cc2s1 (stereo not given) |
| 43.5 µM | CCOC(=O)C(C)(C)Sc1nc2cc(-n3nc(C(C)(C)C)sc3=O)c(Br)cc2s1 |
| 27.5 µM | CCOC(=O)CCSc1nc2cc(-n3nc(C(C)(C)C)sc3=O)c(Br)cc2s1 |
| 245 µM | CCOC(=O)CCCSc1nc2cc(-n3nc(C(C)(C)C)sc3=O)c(Br)cc2s1 |
| 20.7 µM | C#CCSc1nc2cc(-n3nc(C(C)(C)C)sc3=O)c(Br)cc2s1 |

| SMILES | Ki |
| --- | --- |
| COC(=O)CSc1nc2cc(-n3nc(C(C)(C)C)sc3=O)c(F)cc2s1 | 3.05 µM |
| CCOC(=O)C(C)(C)Sc1nc2cc(-n3nc(C(C)(C)C)sc3=O)c(F)cc2s1 | 3.46 µM |
| CC(C)OC(=O)CSc1nc2cc(-n3nc(C(C)(C)C)sc3=O)c(F)cc2s1 | 1.26 µM |
| CCOC(=O)Sc1nc2cc(-n3nc(C(C)(C)C)oc3=O)c(F)cc2s1 | 0.72 µM |
| CCOC(=O)CCCSc1nc2cc(-n3nc(C(C)(C)C)oc3=O)c(F)cc2s1 | 0.36 µM |
| C#CCSc1nc2cc(-n3nc(C(C)(C)C)oc3=O)c(F)cc2s1 | 1.92 µM |
| CCOC(=O)CSc1nc2cc(-n3nc(C(C)(C)C)oc3=O)c(Cl)cc2s1 | 1.07 µM |
| CCOC(=O)C(C)(C)Sc1nc2cc(-n3nc(C(C)(C)C)oc3=O)c(Br)cc2s1 | 1.58 µM |
| CC(C)Oc1cc(-n2nc(C(C)(C)C)oc2=O)c(Cl)cc1Cl [OXADIAZON] | 2.93 µM |

Target: T2, Protoporphyrinogen oxidase, mitochondrial (Nicotiana tabacum, UniProt O24164)
T2 sequence (O24164 whole entry): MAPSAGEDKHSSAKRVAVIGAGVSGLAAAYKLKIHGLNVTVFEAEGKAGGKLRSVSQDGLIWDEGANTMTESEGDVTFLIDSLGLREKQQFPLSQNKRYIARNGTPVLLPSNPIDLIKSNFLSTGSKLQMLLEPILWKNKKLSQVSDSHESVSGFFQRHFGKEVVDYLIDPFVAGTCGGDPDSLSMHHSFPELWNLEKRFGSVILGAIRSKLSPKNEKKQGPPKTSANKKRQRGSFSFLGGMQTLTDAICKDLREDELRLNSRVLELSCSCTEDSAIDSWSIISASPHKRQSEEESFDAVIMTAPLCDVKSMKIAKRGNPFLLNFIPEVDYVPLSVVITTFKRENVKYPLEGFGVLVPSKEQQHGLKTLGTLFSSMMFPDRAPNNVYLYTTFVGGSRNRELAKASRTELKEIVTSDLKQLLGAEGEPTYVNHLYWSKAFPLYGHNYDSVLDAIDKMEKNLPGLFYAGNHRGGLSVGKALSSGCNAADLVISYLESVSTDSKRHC
Assay: Inhibition of Nicotiana tobacum PPO

| SMILES | Ki |
| --- | --- |
| O=C(O)c1cc(Oc2ccc(C(F)(F)F)cc2Cl)ccc1[N+](=O)[O-] [ACIFLUORFEN] | 0.07 µM |

Target: T1, Protoporphyrinogen oxidase
Assay: Inhibition of human PPO expressed in Escherichia coli BL21(DE3) by continuous fluorometric method

| SMILES | Ki |
| --- | --- |
| O=C(O)c1cc(Oc2ccc(C(F)(F)F)cc2Cl)ccc1[N+](=O)[O-] [ACIFLUORFEN] | 1.71 µM |
